Measurements: ChEMBL document CHEMBL1130604, “Synthesis and biological activity of novel thiazolidinediones” (1998)
Active and inactive are the calls of the source. The calls are words filed in the database; no cut-off is given here.

How the values were obtained:
Rattus norvegicus [1] = assay: Compound was tested for antiinflammatory activity by measuring percentage reduction in inflammation at a dose of 100 mg/kg in rats; type: functional
Mus musculus [2] = assay: Compound was tested for antidiabetic activity by measuring percentage reduction in triglycerides at a dose of 30 mg/kg; type: functional
Mus musculus [3] = assay: Compound was tested for antidiabetic activity by measuring percentage reduction in plasma glucose at a dose of 30 mg/kg; type: functional
Mus musculus [4] = assay: Compound was tested for antidiabetic activity by measuring percentage reduction in triglycerides at a dose of 30 mg/kg; NE=No effect; type: functional, organism-based; parameters: dose 30 mg/kg
Mus musculus [5] = assay: Compound was tested for antidiabetic activity by measuring percentage reduction in plasma glucose at a dose of 30 mg/kg; NE=No effect; type: functional, organism-based; parameters: dose 30 mg/kg
Rattus norvegicus [6] = assay: Compound was tested for antiinflammatory activity by measuring percentage reduction in inflammation at a dose of 100 mg/kg in rats; NE=No effect; type: functional, organism-based; parameters: dose 100 mg/kg

With `COc1ccc2cc(CC/C(C)=C3/SC(=O)NC3=O)ccc2c1` the Reduction (Rattus norvegicus [1]) was 10%, the Reduction (Mus musculus [2]) was 50% and the Reduction (Mus musculus [3]) was 16%.
In the case of `Cc1c(C)c2c(c(C)c1O)CCC(C)(COc1ccc(CC3SC(=O)NC3=O)cc1)O2` (stereo unspecified) [TROGLITAZONE], the Reduction (Rattus norvegicus [1]) is reported as 3%, the Reduction (Mus musculus [2]) is reported as 50% and the Reduction (Mus musculus [3]) is reported as 16%.
With `COc1ccc2cc(/C(C)=C3/SC(=O)NC3=O)ccc2c1` the Reduction (Rattus norvegicus [1]) was 7%, the Reduction (Mus musculus [4]) was “inactive” and the Reduction (Mus musculus [3]) was 26%.
For `C/C(CCc1ccc2cc(OCC3(C)CCc4c(C)c(O)c(C)c(C)c4O3)ccc2c1)=C1/SC(=O)NC1=O` (stereo unspecified), the Reduction (Rattus norvegicus [1]) was 12%, the Reduction (Mus musculus [5]) was “inactive” and the Reduction (Mus musculus [4]) was “inactive”.
`C/C(CCc1ccc2cc(O)ccc2c1)=C1\SC(=O)NC1=O` was tested, and the Reduction (Mus musculus [4]) was “inactive”, the Reduction (Mus musculus [3]) was 20% and the Reduction (Rattus norvegicus [6]) was “inactive”.
With `COc1ccc2cc(/C(CC(C)=O)=C3\SC(=O)NC3=O)ccc2c1` the Reduction (Rattus norvegicus [1]) was 25%, the Reduction (Mus musculus [4]) was “inactive” and the Reduction (Mus musculus [3]) was 16%.
Compound `O=C1NC(=O)C(Cc2ccc3cc(OCc4ccccc4F)ccc3c2)S1` (stereo unspecified) [NETOGLITAZONE] has a Reduction (Rattus norvegicus [1]) of 18%, a Reduction (Mus musculus [2]) of 72% and a Reduction (Mus musculus [3]) of 60%.
For `COc1ccc2cc(CCC(C)C3SC(=O)NC3=O)ccc2c1` (stereo unspecified), the Reduction (Rattus norvegicus [1]) was 17%, the Reduction (Mus musculus [2]) was 44% and the Reduction (Mus musculus [3]) was 8%.
With `C/C(=C1\SC(=O)NC1=O)c1ccco1` the Reduction (Rattus norvegicus [1]) was 12%, the Reduction (Mus musculus [4]) was “inactive” and the Reduction (Mus musculus [3]) was 16%.
`COc1ccc2cc(CCC(C)=O)ccc2c1` [NABUMETONE] was tested, and the Reduction (Rattus norvegicus [1]) was 30%, the Reduction (Mus musculus [5]) was “inactive” and the Reduction (Mus musculus [4]) was “inactive”.
In the case of `C/C(=C1/SC(=O)NC1=O)c1cccs1`, the Reduction (Mus musculus [5]) is reported as “inactive”, the Reduction (Mus musculus [2]) is reported as 18% and the Reduction (Rattus norvegicus [6]) is reported as “inactive”.
With `COc1ccc2cc(/C(CC(C)=O)=C3/SC(=O)NC3=O)ccc2c1` the Reduction (Rattus norvegicus [1]) was 7%, the Reduction (Mus musculus [5]) was “inactive” and the Reduction (Mus musculus [4]) was “inactive”.
